How the values were obtained:
RAO horses [1] = experiment: 1st ciclesonide study: moldy hay challenge, lung function variables and breathing effort score; format: in vivo; conditions: after 14 days
RAO horses [2] = experiment: 1st ciclesonide study: moldy hay challenge, serum cortisol; format: in vivo; conditions: any ciclesonide group (450/900/1800 μg/horse twice daily); any measured time point
RAO horses [3] = experiment: 2nd ciclesonide study: moldy hay challenge, lung function variables and weighted clinical score; format: in vivo
From the text: (§1) The commercially available […]® is used in the study.

RAO horses [4] = experiment: 2nd ciclesonide study: moldy hay challenge, serum cortisol; format: in vivo; conditions: any ciclesonide group (1687.5/2700 A/2700 B μg twice daily); any measured time point
From the text: as §1

RAO horses [5] = experiment: Segmented neutrophil and lymphocyte counts in the 1st and 2nd ciclesonide studies; format: in vivo; conditions: for Lymphocytes / Segmented neutrophils: mean, n=8
Method: as §1
The segmented neutrophil counts and the lymphocyte counts are determined in the studies above: ciclesonide treatment versus dexamethasone treatment.
Concentration of segmented neutrophils and lymphocytes on day (D): D0, D14 and D21 in the treatment groups of dexamethasone and different doses of ciclesonide (n=8) (mean (SEM)

RAO horses [6] = experiment: 3rd ciclesonide study: moldy hay challenge, lung function variables; format: in vivo; conditions: ciclesonide 2700 μg twice daily / 3712.5 μg once daily morning / 3712.5 μg once daily evening, inhalation, nozzle B; after 14 days
From the text: The horses are challenged by exposure to moldy hay to throughout the whole study.

[7] = Plasma level of ciclesonide and C21-C21-desisobutyrylciclesonide (HPLC-MS/MS), 2nd ciclesonide study; conditions: for concentration at 0 min / concentration at 10 min / concentration at 30 min / concentration at 1 h / concentration at 2 h / concentration at 4 h: horse, plasma, inhaled
[8] = 450 μg ciclesonide/horse twice daily 14 days per inhalation (nozzle A), 1st study, D 0
[9] = 450 μg ciclesonide/horse twice daily 14 days per inhalation (nozzle A), 1st study, D 14
[10] = 450 μg ciclesonide/horse twice daily 14 days per inhalation (nozzle A), 1st study, D 21
[11] = 900 μg ciclesonide/horse twice daily 14 days per inhalation (nozzle A), 1st study, D 0
[12] = 900 μg ciclesonide/horse twice daily 14 days per inhalation (nozzle A), 1st study, D 14
[13] = 900 μg ciclesonide/horse twice daily 14 days per inhalation (nozzle A), 1st study, D 21
[14] = 1687.5 μg ciclesonide/horse twice daily 14 days per inhalation (nozzle B), 2nd study, D 0
[15] = 1687.5 μg ciclesonide/horse twice daily 14 days per inhalation (nozzle B), 2nd study, D 14
[16] = 1687.5 μg ciclesonide/horse twice daily 14 days per inhalation (nozzle B), 2nd study, D 21
[17] = 1800 μg ciclesonide/horse twice daily 14 days per inhalation (nozzle A), 1st study, D 0
[18] = 1800 μg ciclesonide/horse twice daily 14 days per inhalation (nozzle A), 1st study, D 14
[19] = 1800 μg ciclesonide/horse twice daily 14 days per inhalation (nozzle A), 1st study, D 21
[20] = 2700 μg ciclesonide A (nozzle A)/horse twice daily 14 days per inhalation, 2nd study, D 0
[21] = 2700 μg ciclesonide A (nozzle A)/horse twice daily 14 days per inhalation, 2nd study, D 14
[22] = 2700 μg ciclesonide A (nozzle A)/horse twice daily 14 days per inhalation, 2nd study, D 21
[23] = 2700 μg ciclesonide B (nozzle B)/horse twice daily 14 days per inhalation, 2nd study, D 0
[24] = 2700 μg ciclesonide B (nozzle B)/horse twice daily 14 days per inhalation, 2nd study, D 14
[25] = 2700 μg ciclesonide B (nozzle B)/horse twice daily 14 days per inhalation, 2nd study, D 21
[26] = 1st ciclesonide study, after administration of ciclesonide 450/900/1800 μg twice daily
[27] = 2nd ciclesonide study, after administration of ciclesonide 1687.5/2700 μg twice daily
[28] = 1687.5 μg/horse, Ciclesonide concentration (plasma), ciclesonide 1687.5 μg (nozzle B) twice daily per inhalation, day 1
[29] = 1687.5 μg/horse, Ciclesonide concentration (plasma), ciclesonide 1687.5 μg (nozzle B) twice daily per inhalation, day 11
[30] = 2700 μg/horse, Ciclesonide concentration (plasma), ciclesonide 2700 μg A (nozzle A) twice daily per inhalation, day 1
[31] = 2700 μg/horse, Ciclesonide concentration (plasma), ciclesonide 2700 μg A (nozzle A) twice daily per inhalation, day 11
[32] = 2700 μg/horse, Ciclesonide concentration (plasma), ciclesonide 2700 μg B (nozzle B) twice daily per inhalation, day 1
[33] = 2700 μg/horse, Ciclesonide concentration (plasma), ciclesonide 2700 μg B (nozzle B) twice daily per inhalation, day 11

CC(C)C(=O)OCC(=O)[C@@]12O[C@H](C3CCCCC3)O[C@@H]1C[C@H]1[C@@H]3CCC4=CC(=O)C=C[C@]4(C)[C@H]3[C@@H](O)C[C@@]12C [ciclesonide, (11β,16α)-16,17-[[(R)-Cyclohexylmethylene]bis(oxy)]-11-hydroxy-21-(2-methyl-1-oxopropoxy)pregna-1,4-diene-3,20-dione]
ΔPL and EL compared to pretreatment values (RAO horses [1]; ciclesonide 1800 μg/horse ex RESPIMAT twice daily per inhalation, p=0.0005 and p=0.0004): statistically significant reduction
ΔPL and EL, difference to dexamethasone group (RAO horses [1]; ciclesonide 1800 μg/horse ex RESPIMAT twice daily): no significant difference
serum cortisol levels (RAO horses [2]): no significant reduction
all lung function variables (ΔPL, RL, EL) compared to pretreatment values (RAO horses [3]; all ciclesonide groups (1687.5 μg nozzle B/2700 μg nozzle A/2700 μg nozzle B twice daily), after 14 days, p=0.0009 to p<0.0001): significantly reduced
lung function variables, difference to dexamethasone group (RAO horses [3]; all ciclesonide groups (1687.5/2700 A/2700 B μg twice daily), after 7 or 14 days): no significant difference
weighted clinical score compared to pretreatment values (RAO horses [3]; all three ciclesonide groups (1687.5/2700 A/2700 B μg twice daily), after 14 days, p=0.0001 to p<0.0001): significantly reduced
weighted clinical score, difference to dexamethasone group (RAO horses [3]; ciclesonide treatment groups (1687.5/2700 A/2700 B μg twice daily), after 14 days): no significant difference
serum cortisol levels (RAO horses [4]): no significant reduction
Lymphocytes (RAO horses [5]; [8]): 1.96e+09 L⁻¹
Segmented neutrophils (RAO horses [5]; [8]): 4.66e+09 L⁻¹
Lymphocytes (RAO horses [5]; [9]): 1.97e+09 L⁻¹
Segmented neutrophils (RAO horses [5]; [9]): 4.98e+09 L⁻¹
Lymphocytes (RAO horses [5]; [10]): 2.17e+09 L⁻¹
Segmented neutrophils (RAO horses [5]; [10]): 5.48e+09 L⁻¹
Lymphocytes (RAO horses [5]; [11]): 1.85e+09 L⁻¹
Segmented neutrophils (RAO horses [5]; [11]): 5.24e+09 L⁻¹
Lymphocytes (RAO horses [5]; [12]): 2.03e+09 L⁻¹
Segmented neutrophils (RAO horses [5]; [12]): 4.43e+09 L⁻¹
Lymphocytes (RAO horses [5]; [13]): 1.94e+09 L⁻¹
Segmented neutrophils (RAO horses [5]; [13]): 4.91e+09 L⁻¹
Lymphocytes (RAO horses [5]; [14]): 1.93e+09 L⁻¹
Segmented neutrophils (RAO horses [5]; [14]): 4.51e+09 L⁻¹
Lymphocytes (RAO horses [5]; [15]): 1.94e+09 L⁻¹
Segmented neutrophils (RAO horses [5]; [15]): 5.22e+09 L⁻¹
Lymphocytes (RAO horses [5]; [16]): 2.04e+09 L⁻¹
Segmented neutrophils (RAO horses [5]; [16]): 4.55e+09 L⁻¹
Lymphocytes (RAO horses [5]; [17]): 1.95e+09 L⁻¹
Segmented neutrophils (RAO horses [5]; [17]): 4.6e+09 L⁻¹
Lymphocytes (RAO horses [5]; [18]): 1.96e+09 L⁻¹
Segmented neutrophils (RAO horses [5]; [18]): 5.41e+09 L⁻¹
Lymphocytes (RAO horses [5]; [19]): 2.06e+09 L⁻¹
Segmented neutrophils (RAO horses [5]; [19]): 4.93e+09 L⁻¹
Lymphocytes (RAO horses [5]; [20]): 2.04e+09 L⁻¹
Segmented neutrophils (RAO horses [5]; [20]): 4.91e+09 L⁻¹
Lymphocytes (RAO horses [5]; [21]): 2.14e+09 L⁻¹
Segmented neutrophils (RAO horses [5]; [21]): 4.85e+09 L⁻¹
Lymphocytes (RAO horses [5]; [22]): 2.01e+09 L⁻¹
Segmented neutrophils (RAO horses [5]; [22]): 4.41e+09 L⁻¹
Lymphocytes (RAO horses [5]; [23]): 1.8e+09 L⁻¹
Segmented neutrophils (RAO horses [5]; [23]): 4.23e+09 L⁻¹
Lymphocytes (RAO horses [5]; [24]): 1.74e+09 L⁻¹
Segmented neutrophils (RAO horses [5]; [24]): 4.75e+09 L⁻¹
Lymphocytes (RAO horses [5]; [25]): 2.01e+09 L⁻¹
Segmented neutrophils (RAO horses [5]; [25]): 4.84e+09 L⁻¹
counts of lymphocytes (RAO horses [5]; [26]): no change
counts of segmented neutrophils (RAO horses [5]; [26]): no or minor increase
counts of lymphocytes (RAO horses [5]; [27]): no change
counts of segmented neutrophils (RAO horses [5]; [27]): no or minor increase
alteration in the immune system measured by neutrophilia and lymphopenia (RAO horses [5]; treatment for two weeks with different dose levels of ciclesonide): no alteration is observed
lung function variables (ΔPL, RL, EL) compared to pretreatment values and to placebo group (RAO horses [6]): significantly reduced
Ciclesonide concentration (plasma) ([7]; ciclesonide 1687.5 μg (nozzle B) twice daily per inhalation, day 11, 2 h): <0.500 nmol/L
Ciclesonide concentration (plasma) ([7]; ciclesonide 1687.5 μg (nozzle B) twice daily per inhalation, day 11, 4 h): <0.500 nmol/L
concentration at 0 min [7, 28]: < 0.5 nM
concentration at 10 min [7, 28]: 0.87 nM
concentration at 30 min [7, 28]: < 0.5 nM
concentration at 1 h ([7]; 1687.5 μg/horse, Ciclesonide concentration (plasma), ciclesonide 1687.5 μg (nozzle B) twice daily per inhalation, day 1, 1 h): < 0.5 nM
concentration at 2 h ([7]; 1687.5 μg/horse, Ciclesonide concentration (plasma), ciclesonide 1687.5 μg (nozzle B) twice daily per inhalation, day 1, 2 h): < 0.5 nM
concentration at 4 h ([7]; 1687.5 μg/horse, Ciclesonide concentration (plasma), ciclesonide 1687.5 μg (nozzle B) twice daily per inhalation, day 1, 4 h): < 0.5 nM
concentration at 0 min [7, 29]: < 0.5 nM
concentration at 10 min [7, 29]: 0.97 nM
concentration at 30 min [7, 29]: < 0.5 nM
concentration at 1 h ([7]; 1687.5 μg/horse, Ciclesonide concentration (plasma), ciclesonide 1687.5 μg (nozzle B) twice daily per inhalation, day 11, 1 h): < 0.5 nM
concentration at 0 min [7, 30]: < 0.5 nM
concentration at 10 min [7, 30]: 1.19 nM
concentration at 30 min [7, 30]: 0.51 nM
concentration at 1 h ([7]; 2700 μg/horse, Ciclesonide concentration (plasma), ciclesonide 2700 μg A (nozzle A) twice daily per inhalation, day 1, 1 h): < 0.5 nM
concentration at 2 h ([7]; 2700 μg/horse, Ciclesonide concentration (plasma), ciclesonide 2700 μg A (nozzle A) twice daily per inhalation, day 1, 2 h): < 0.5 nM
concentration at 4 h ([7]; 2700 μg/horse, Ciclesonide concentration (plasma), ciclesonide 2700 μg A (nozzle A) twice daily per inhalation, day 1, 4 h): < 0.5 nM
concentration at 0 min [7, 31]: < 0.5 nM
concentration at 10 min [7, 31]: 1.02 nM
concentration at 30 min [7, 31]: 0.63 nM
concentration at 1 h ([7]; 2700 μg/horse, Ciclesonide concentration (plasma), ciclesonide 2700 μg A (nozzle A) twice daily per inhalation, day 11, 1 h): < 0.5 nM
concentration at 2 h ([7]; 2700 μg/horse, Ciclesonide concentration (plasma), ciclesonide 2700 μg A (nozzle A) twice daily per inhalation, day 11, 2 h): < 0.5 nM
concentration at 4 h ([7]; 2700 μg/horse, Ciclesonide concentration (plasma), ciclesonide 2700 μg A (nozzle A) twice daily per inhalation, day 11, 4 h): < 0.5 nM
concentration at 0 min [7, 32]: < 0.5 nM
concentration at 10 min [7, 32]: 1.16 nM
concentration at 30 min [7, 32]: 0.72 nM
concentration at 1 h ([7]; 2700 μg/horse, Ciclesonide concentration (plasma), ciclesonide 2700 μg B (nozzle B) twice daily per inhalation, day 1, 1 h): < 0.5 nM
concentration at 2 h ([7]; 2700 μg/horse, Ciclesonide concentration (plasma), ciclesonide 2700 μg B (nozzle B) twice daily per inhalation, day 1, 2 h): < 0.5 nM
concentration at 4 h ([7]; 2700 μg/horse, Ciclesonide concentration (plasma), ciclesonide 2700 μg B (nozzle B) twice daily per inhalation, day 1, 4 h): < 0.5 nM
concentration at 0 min [7, 33]: < 0.5 nM
concentration at 10 min [7, 33]: 1.38 nM
concentration at 30 min [7, 33]: 0.63 nM
concentration at 1 h ([7]; 2700 μg/horse, Ciclesonide concentration (plasma), ciclesonide 2700 μg B (nozzle B) twice daily per inhalation, day 11, 1 h): < 0.5 nM
concentration at 2 h ([7]; 2700 μg/horse, Ciclesonide concentration (plasma), ciclesonide 2700 μg B (nozzle B) twice daily per inhalation, day 11, 2 h): < 0.5 nM
concentration at 4 h ([7]; 2700 μg/horse, Ciclesonide concentration (plasma), ciclesonide 2700 μg B (nozzle B) twice daily per inhalation, day 11, 4 h): < 0.5 nM
concentration at 1 h ([7]; concentration of ciclesonide in plasma, samples taken 1 h after drug administration, below lower limit of quantification): < 0.5 nM
conversion of the prodrug into the effective molecule C21-C21-desisobutyrylciclesonide ([7]; in horses (example 5)): can be converted

From patent US10258634B2, “Ciclesonide for the treatment of airway disease in horses” (Boehringer Ingelheim Vetmedica GmbH, priority 2012, dated 2019)
